System: sows
Assay: Oral L-arginine supplementation of sows during pregnancy
Type: in vivo, pigs
Protocol: The experiment was performed with 197 sows that had already produced at least one litter. Sows in the control group (n=95) received a normal diet during gestation. Sows in the L-arginine group (n=102) received a normal diet from insemination until day 13 of pregnancy, an L-arginine supplemented diet from day 14 until day 31, again the control diet from day 32 until day 104 and again the L-arginine supplemented diet from day 105 until farrowing.
The L-arginine supplemented diet was the same as the control diet, except for the addition of 10 g L-arginine per kg.

N=C(N)NCCC[C@H](N)C(=O)O [L-arginine]
Sows (litters) with stillborn piglets (41 sows of the L-arginine group, same percentage as control): 47.1%
Average number of stillborn piglets in litters with stillborn piglets (not significantly different from control): 1.86±0.22
Birth weight NBA corrected for LS (piglets born alive, corrected for litter size): 1597 ± 24 g
Birth weight NBA (piglets born alive, not corrected for litter size): 1584 ± 27 g
Total number born + mummies (piglets per litter, corrected for parity, L-arginine diet day 14-31 and day 105 until farrowing, p<0.05 vs control): 12.74 ± 0.31
Total number born (TNB) (piglets per litter, L-arginine diet day 14-31 and day 105 until farrowing, p<0.05 vs control): 12.69 ± 0.31
Number born alive (NBA) (piglets per litter, L-arginine diet day 14-31 and day 105 until farrowing, p=0.055 vs control): 11.77 ± 0.30^+
Birth weight TNB corrected for LS (piglets, total number born, corrected for litter size): 1578 ± 23 g
Birth weight TNB (piglets, total number born, not corrected for litter size): 1563 ± 27 g
Farrowing rate (sows, diet with 10 g L-arginine per kg added, day 14-31 and day 105 until farrowing, 87/102): 85%
Effect on litter size (total number born and number born alive), piglets extra (versus control group): ~1 piglet

Reference: patent publication US8303979B2, “Dietary modifications to improve fertility” (Nutreco Nederland B.V., priority 2001, dated 2012)
